This passage reports IC50 and inhibition results from patent EP0444854B1, “6-Substituted hexahydrobenz[cd]indoles” (ELI LILLY AND COMPANY, priority 1990, dated 1991).

The first experiment has as its target T1, 5-HT1A receptors (Rattus norvegicus, UniProt P19327).
T1 construct: from tissue; host or cells: rat cerebral cortex, crude synaptosomal membranes
T1 sequence (P19327 1-422): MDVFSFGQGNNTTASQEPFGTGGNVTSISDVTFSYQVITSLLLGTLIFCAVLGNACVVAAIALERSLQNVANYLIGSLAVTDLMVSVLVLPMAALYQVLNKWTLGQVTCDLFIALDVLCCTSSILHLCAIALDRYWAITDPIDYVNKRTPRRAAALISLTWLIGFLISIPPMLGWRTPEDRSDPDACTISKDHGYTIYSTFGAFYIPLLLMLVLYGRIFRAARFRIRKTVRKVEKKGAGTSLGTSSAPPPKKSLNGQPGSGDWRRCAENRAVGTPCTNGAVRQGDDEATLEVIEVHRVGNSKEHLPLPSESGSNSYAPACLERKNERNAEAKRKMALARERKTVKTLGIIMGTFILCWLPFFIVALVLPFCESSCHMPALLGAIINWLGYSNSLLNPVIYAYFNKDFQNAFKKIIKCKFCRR
The experiment can be described thus: Inhibition of 3H-8-OH-DPAT binding to synaptosomal membranes from rat cerebral cortex. Details: species or system Male Sprague-Dawley rats. The settings on record: 0.4 nM 3H-8-OH-DPAT, 37°C, 10 min, read-out: IC50 (concentration in nanomoles which inhibited binding of 8-OH-DPAT by 50%). The protocol: This general procedure is set forth in Wong et al., J. Neural Transm. 71:207-218 (1988).
Male Sprague-Dawley rats (110-150 g) from Harlan Industries (Cumberland, IN) were fed a Purina Chow ad libitum for at least 3 days before being used in the studies. Rats were killed by decapitation. The brains were rapidly removed, and the cerebral cortices were dissected out at 4°C.
Brain tissues were homogenized in 0.32 M sucrose. After centrifugation at 1000 x g for 10 min and then at 17000 x g for 20 min, a crude synaptosomal fraction was sedimented. The pellet was suspended in 100 vol of 50 mM Tris-HCl, pH 7.4, incubated at 37°C for 10 min, and centrifuged at 50000 x g for 10 min. The process was repeated and the final pellet was suspended in ice-chilled 50 mM Tris-HCl, pH 7.4. By the radioligand binding method, sites specifically labeled by tritiated 8-hydroxy-2-dipropylamino-1,2,3,4-tetrahydronaphthalene (^3H-8-OH-DPAT) have been identified as 5-HT1A receptors.
Binding of (^3H-8-OH-DPAT) was performed according to the previously described method [Wong et al., J. Neural Transm. 64:251-269 (1985)]. Briefly, synaptosomal membranes isolated from cerebral cortex were incubated at 37°C for 10 min. in 2 ml of 50 mM Tris-HCl, pH 7.4; 10 µM pargyline; 0.6 mM ascorbic acid; 0.4 nM ^3H-8-OH-DPAT; and from […] of test compound. Binding was terminated by filtering samples under reduced pressure through glass fiber (GFB) filters. The filters were washed twice with 5 ml of ice cold buffer and placed in scintillation vials with 10 ml of PCS (Amersham/Searle) scintillation fluid. Radioactivity was measured with a liquid scintillation spectrometer. Unlabeled 8-OH-DPAT at 10 µM was also included in separate samples to establish non-specific binding. Specific binding of ^3H-8-OH-DPAT is defined as the difference of radioactivity bound in the absence and in the presence of 10 µM unlabeled 8-OH-DPAT.
For these compounds which inhibited the binding of ^3H-8-OH-DPAT by less than 50%, the percent of inhibition is given in parenthesis.
`CCCN(CCC)[C@@H]1Cc2c(C(N)=O)ccc3c2[C@H](CN3)C1` [Example 9, (2aR,4S)-4-(di-n-propylamino)-6-aminocarbonyl-1,2,2a,3,4,5-hexahydrobenz[c,d]indole]: the IC50 was determined as 11 nM.
Same read-out and setting: for `CCCN(CCC)[C@H]1Cc2c(C(N)=O)ccc3c2[C@@H](CN3)C1` [Example 10, (2aS, 4R)-4-(di-n-propyl)-6-aminocaronyl-1,2,2a,3,4,5-hexahydrobenz[c,d]indole] the value was 2.1 nM; for `CCCN(CCC)[C@H]1Cc2c(C(=O)OC)ccc3c2[C@@H](CN3)C1` [Example 11, Methyl (2aS,4R)-4-(Di-n-propylamino)-1,2,2a,3,4,5-hexahydrobenz[c,d]indole-6-carboxylate], 5.7 nM.
Still for that read-out and setting: the figure for `CCCN(CCC)[C@H]1Cc2c(C(=O)N(C)C)ccc3c2[C@@H](CN3)C1` [Example 12, (2aS,4R)-N,N-Dimethyl-4-(di-n-propylamino)-1,2,2a,3,4,5-hexahydrobenz[cd]indole-6-carboxamide] is 5.1 nM.

The same experiment, now with this note: at 100 nanomoles of test compound, 0.4 nM 3H-8-OH-DPAT, read-out: percent of inhibition of binding of 8-OH-DPAT at 100 nanomoles if less than 50%.
Usually inhibition stands for the relative decrease from the control value, in per cent. Consider `N[C@@H]1Cc2c(Br)ccc3c2[C@@H](C1)CN3C(=O)c1ccccc1` [Example 1, (2aR,4S)-1-benzoyl-4-amino-6-bromo-1,2,2a,3,4,5-hexahydrobenz[cd]indole], for which the inhibition at 0.1 µM amounted to 6%.
On to `CCCN(CCC)[C@@H]1Cc2c(Br)ccc3c2[C@@H](C1)CN3C(=O)c1ccccc1` [Example 3, (2aR, 4S)-1-Benzoyl-4-(di-n-propyl)-amino-6-bromo-1,2,2a,3,4,5-hexahydrobenz[cd]indole], for which the inhibition at 0.1 µM was 5%.
Still for that read-out and setting: for `CCCN(CCC)[C@@H]1Cc2c(C#N)ccc3c2[C@@H](C1)CN3C(=O)c1ccccc1` [Example 5, (2aR,4S)-1-benzoyl-4-(di-n-propyl)amino-6-cyano-1,2,2a,3,4,5-hexahydrobenz[cd]indole] the value was 11%; for `CCCN(CCC)[C@@H]1Cc2c(C#N)ccc3c2[C@H](CN3)C1` [Example 7, (2aR,4S)-4-(di-n-propyl)amino-6-cyano-1,2,2a,3,4,5-hexahydrobenz[cd]indole], 21%.
